Results taken from ChEMBL document CHEMBL4364328, “Inhibition of ACSS2 for Treatment of Cancer and Neuropsychiatric Diseases” (ACS Med Chem Lett, 2019).

Molecular target: Acetyl-coenzyme A synthetase, cytoplasmic (Homo sapiens, UniProt Q9NR19)
Experiment: Inhibition of ACSS2 in human MDA-MB-468 cells assessed as 13C-acetate incorporation incubated for 5 hrs measured under hypoxic conditions by LCMS analysis
Type: cell-based

Sequence of Acetyl-coenzyme A synthetase, cytoplasmic (Q9NR19 whole entry): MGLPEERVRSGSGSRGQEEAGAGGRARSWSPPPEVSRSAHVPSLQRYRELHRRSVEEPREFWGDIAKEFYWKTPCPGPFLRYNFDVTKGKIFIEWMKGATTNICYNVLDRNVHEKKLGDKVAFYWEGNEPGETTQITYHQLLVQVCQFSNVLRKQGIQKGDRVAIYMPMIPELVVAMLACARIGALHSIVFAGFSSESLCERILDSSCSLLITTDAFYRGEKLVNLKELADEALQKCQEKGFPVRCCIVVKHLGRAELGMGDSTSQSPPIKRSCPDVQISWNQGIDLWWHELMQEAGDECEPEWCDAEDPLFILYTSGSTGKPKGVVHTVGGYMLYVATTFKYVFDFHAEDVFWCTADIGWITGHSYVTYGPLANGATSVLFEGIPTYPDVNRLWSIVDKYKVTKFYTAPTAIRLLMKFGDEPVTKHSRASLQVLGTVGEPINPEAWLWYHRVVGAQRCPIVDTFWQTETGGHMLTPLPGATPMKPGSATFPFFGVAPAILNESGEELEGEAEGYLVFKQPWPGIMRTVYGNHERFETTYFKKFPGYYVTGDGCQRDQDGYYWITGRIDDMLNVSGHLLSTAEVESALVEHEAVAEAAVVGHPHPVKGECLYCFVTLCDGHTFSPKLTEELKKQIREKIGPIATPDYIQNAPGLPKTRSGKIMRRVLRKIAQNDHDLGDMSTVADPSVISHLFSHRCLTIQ

SMILES	IC50
COc1ccc(N2N=C(C)C(C(=O)Nc3cccc(-c4ccco4)c3)C2=O)cn1 (stereo unspecified)	3.9 nM
COc1ccc(N2N=C(C)C(C(=O)Nc3cccc(C(C)(F)F)c3)C2=O)cc1-c1ncco1 (stereo unspecified)	1.1 nM
COc1ccc(N2N=C(C)C(C(=O)Nc3cccc(-c4ccco4)c3)C2=O)cc1 (stereo unspecified)	3.2 nM
COc1ccc(N2N=C(C)C(C(=O)Nc3cccc(C(C)(F)F)c3)C2=O)cc1 (stereo unspecified)	4.5 nM
CC1=NN(c2ccc(OC(F)F)c(-c3cccnc3)c2)C(=O)C1C(=O)Nc1cccc(C(C)(F)F)c1 (stereo unspecified)	0.33 nM
COc1ccc(N2N=C(C)C(C(=O)Nc3cccc(C(C)(F)F)c3)C2=O)cc1OC (stereo unspecified)	1 nM
CC1=NN(c2ccc(OC(F)F)cc2)C(=O)C1C(=O)Nc1cccc(C(C)(F)F)c1 (stereo unspecified)	2.66 nM
CC1=NN(c2ccccc2)C(=O)C1C(=O)Nc1cccc(C(C)(F)F)c1 (stereo unspecified)	4 nM
COC(=O)c1cccc(N2N=C(C)C(C(=O)Nc3cccc(-c4ccco4)c3)C2=O)c1 (stereo unspecified)	2.1 nM
COc1ccc(N2N=C(C)C(C(=O)Nc3cccc(C(C)(F)F)c3)C2=O)cn1 (stereo unspecified)	5 nM
CCC(F)(F)c1cccc(NC(=O)C2C(=O)N(c3ccc(OC)cc3)N=C2C)c1 (stereo unspecified)	0.463 nM
